Key:
[1] = molecular target: Lysine-specific demethylase 5A (Homo sapiens, UniProt P29375); assay: Inhibition of KDM5A (unknown origin) preincubated with enzyme
[2] = molecular target: Lysine-specific demethylase 5B (Homo sapiens, UniProt Q9UGL1); assay: Inhibition of KDM5B (unknown origin) preincubated with enzyme
[3] = molecular target: Lysine-specific demethylase 5A/5B (Homo sapiens, UniProt P29375+Q9UGL1); assay: Inhibition of KDM5A/KDM5B in human ZR-75-1 cells assessed as increase in H3K4me3 level after 72 hrs by fluorometric immunoassay; assay type: cell-based
[4] = molecular target: T1, Lysine-specific demethylase 4C (Homo sapiens, UniProt Q9H3R0); assay: Inhibition of KDM4C (unknown origin) preincubated with enzyme
T1 sequence (Q9H3R0 whole entry): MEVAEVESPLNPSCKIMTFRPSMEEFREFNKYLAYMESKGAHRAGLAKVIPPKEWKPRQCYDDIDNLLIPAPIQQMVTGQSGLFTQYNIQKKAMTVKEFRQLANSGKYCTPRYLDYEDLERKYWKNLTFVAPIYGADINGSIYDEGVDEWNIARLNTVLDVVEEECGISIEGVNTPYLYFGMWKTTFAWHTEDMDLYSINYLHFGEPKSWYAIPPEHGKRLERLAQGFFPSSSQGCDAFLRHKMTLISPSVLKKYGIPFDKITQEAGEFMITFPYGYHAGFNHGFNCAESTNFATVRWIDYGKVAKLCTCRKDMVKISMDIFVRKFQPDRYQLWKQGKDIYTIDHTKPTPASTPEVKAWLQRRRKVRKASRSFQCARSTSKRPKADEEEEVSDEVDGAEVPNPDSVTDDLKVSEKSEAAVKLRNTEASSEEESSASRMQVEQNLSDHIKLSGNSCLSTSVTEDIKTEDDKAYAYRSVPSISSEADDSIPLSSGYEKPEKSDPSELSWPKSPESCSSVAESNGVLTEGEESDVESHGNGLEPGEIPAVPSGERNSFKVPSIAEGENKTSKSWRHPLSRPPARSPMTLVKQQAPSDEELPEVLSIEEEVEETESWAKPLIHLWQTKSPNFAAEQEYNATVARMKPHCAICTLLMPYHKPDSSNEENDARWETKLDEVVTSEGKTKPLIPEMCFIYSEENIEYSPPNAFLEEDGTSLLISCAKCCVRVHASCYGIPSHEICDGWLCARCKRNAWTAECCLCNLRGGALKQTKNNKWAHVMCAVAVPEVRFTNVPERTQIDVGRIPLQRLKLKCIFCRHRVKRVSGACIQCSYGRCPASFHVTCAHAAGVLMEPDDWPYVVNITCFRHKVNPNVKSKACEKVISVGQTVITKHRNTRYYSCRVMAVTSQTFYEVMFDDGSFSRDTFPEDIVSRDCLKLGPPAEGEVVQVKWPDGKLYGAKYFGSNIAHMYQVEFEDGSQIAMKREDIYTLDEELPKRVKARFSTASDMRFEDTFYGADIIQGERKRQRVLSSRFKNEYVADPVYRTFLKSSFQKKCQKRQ

Chain of Lysine-specific demethylase 5A (P29375 whole entry): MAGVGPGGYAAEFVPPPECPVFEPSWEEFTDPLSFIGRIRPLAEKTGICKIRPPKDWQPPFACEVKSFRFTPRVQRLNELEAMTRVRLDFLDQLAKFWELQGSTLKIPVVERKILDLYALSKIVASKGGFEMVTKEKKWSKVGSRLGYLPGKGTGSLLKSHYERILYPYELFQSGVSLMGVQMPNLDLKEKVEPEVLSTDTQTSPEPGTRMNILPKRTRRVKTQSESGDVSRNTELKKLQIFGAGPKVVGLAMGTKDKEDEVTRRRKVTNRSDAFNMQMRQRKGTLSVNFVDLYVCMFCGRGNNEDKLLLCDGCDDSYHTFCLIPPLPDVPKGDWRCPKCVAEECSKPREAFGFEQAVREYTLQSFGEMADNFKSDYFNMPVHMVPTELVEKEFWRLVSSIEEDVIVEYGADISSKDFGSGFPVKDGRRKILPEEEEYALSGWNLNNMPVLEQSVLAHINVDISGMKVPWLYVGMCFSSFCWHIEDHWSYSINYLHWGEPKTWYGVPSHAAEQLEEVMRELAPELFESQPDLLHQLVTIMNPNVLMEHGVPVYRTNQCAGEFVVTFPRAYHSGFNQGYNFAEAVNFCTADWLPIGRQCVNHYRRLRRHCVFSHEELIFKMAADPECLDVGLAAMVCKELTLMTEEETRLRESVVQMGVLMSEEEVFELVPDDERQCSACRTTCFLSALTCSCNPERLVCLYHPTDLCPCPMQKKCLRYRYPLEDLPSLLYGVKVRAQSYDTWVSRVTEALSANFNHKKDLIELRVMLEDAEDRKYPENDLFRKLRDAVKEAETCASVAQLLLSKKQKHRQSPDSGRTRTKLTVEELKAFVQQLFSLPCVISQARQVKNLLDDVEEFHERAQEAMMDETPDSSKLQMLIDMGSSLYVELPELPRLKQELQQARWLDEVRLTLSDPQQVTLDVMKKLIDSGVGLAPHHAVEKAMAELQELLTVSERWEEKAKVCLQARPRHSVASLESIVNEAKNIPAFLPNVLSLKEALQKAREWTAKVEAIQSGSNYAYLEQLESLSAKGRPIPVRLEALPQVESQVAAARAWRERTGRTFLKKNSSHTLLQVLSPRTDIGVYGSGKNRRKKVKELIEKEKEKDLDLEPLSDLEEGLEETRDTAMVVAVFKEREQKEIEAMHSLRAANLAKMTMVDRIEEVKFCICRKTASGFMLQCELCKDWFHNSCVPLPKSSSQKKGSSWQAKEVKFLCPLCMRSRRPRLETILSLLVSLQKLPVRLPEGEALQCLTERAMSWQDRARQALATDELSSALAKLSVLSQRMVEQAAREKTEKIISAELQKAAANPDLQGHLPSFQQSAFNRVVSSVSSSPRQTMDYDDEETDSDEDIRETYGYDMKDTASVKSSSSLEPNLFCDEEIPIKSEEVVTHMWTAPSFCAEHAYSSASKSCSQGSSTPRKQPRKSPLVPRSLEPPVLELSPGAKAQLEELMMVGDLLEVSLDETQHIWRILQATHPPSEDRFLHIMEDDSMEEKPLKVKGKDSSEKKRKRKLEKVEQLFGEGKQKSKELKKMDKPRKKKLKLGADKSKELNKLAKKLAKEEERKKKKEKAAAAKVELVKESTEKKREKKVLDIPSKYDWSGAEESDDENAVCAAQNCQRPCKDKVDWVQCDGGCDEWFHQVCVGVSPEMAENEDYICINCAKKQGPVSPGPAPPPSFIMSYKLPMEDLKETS
Chain of Lysine-specific demethylase 5B (Q9UGL1 whole entry): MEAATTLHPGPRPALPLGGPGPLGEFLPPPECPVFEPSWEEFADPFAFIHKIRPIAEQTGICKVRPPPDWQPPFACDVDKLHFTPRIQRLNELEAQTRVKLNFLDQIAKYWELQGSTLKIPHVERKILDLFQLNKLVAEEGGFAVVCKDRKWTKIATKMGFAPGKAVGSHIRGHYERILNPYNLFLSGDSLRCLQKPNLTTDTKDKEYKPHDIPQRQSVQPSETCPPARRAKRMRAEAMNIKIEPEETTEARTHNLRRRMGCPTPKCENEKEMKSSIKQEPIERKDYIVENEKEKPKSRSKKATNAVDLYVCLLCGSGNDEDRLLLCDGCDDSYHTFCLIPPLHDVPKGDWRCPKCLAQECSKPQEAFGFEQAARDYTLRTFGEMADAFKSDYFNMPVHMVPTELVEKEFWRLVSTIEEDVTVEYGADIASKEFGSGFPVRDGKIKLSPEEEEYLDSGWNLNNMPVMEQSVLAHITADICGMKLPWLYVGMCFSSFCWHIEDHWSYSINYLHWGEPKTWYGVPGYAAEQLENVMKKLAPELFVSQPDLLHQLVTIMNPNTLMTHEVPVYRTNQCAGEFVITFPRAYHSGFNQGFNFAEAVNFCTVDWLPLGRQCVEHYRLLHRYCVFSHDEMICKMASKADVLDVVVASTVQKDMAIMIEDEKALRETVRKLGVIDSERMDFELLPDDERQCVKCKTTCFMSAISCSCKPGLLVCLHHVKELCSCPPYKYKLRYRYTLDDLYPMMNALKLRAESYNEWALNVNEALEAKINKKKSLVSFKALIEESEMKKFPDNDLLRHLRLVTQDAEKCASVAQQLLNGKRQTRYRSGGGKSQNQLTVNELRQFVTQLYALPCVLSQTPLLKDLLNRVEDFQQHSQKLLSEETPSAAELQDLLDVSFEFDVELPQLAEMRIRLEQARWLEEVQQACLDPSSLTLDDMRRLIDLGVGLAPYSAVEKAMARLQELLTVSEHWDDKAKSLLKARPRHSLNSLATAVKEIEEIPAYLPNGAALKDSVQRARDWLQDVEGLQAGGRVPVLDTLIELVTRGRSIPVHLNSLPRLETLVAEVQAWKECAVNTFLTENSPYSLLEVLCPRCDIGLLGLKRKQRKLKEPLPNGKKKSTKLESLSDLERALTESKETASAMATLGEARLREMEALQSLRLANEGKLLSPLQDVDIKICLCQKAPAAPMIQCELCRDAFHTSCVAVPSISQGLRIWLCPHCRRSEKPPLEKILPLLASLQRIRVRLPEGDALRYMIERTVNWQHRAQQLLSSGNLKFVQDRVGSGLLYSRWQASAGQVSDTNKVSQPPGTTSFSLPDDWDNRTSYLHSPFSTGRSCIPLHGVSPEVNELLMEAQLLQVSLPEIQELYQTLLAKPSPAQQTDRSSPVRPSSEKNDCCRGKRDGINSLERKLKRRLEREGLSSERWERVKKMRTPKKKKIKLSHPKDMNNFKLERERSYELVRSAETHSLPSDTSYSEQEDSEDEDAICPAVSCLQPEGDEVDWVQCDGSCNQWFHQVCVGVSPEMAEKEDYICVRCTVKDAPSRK

| SMILES | IC50 [1] | IC50 [2] | EC50 [3] | IC50 [4] |
| --- | --- | --- | --- | --- |
| O=C(O)c1ccnc(-n2nccc2OCc2cccc(F)c2)c1 | 0.43 µM | 0.022 µM | 12 µM | – |
| CCc1cnn(-c2cc(C(=O)O)ccn2)c1OCc1ccc(F)cc1 | 0.029 µM | 0.024 µM | – | 0.26 µM |
| O=C(O)c1ccnc(-n2nccc2OCc2ccc(C3CC3)cc2)c1 | 0.25 µM | 0.008 µM | – | – |
| O=C(O)c1ccnc(-n2nccc2OCc2ccc(Br)cc2)c1 | 0.006 µM | 0.002 µM | 0.86 µM | – |
| O=C(O)c1ccnc(-n2nccc2OCc2ccc(Cl)cc2F)c1 | 0.018 µM | 0.004 µM | 1.3 µM | – |
| O=C(O)c1ccnc(-n2nccc2OCc2ccccc2)c1 | 0.55 µM | 0.001 to 0.024 µM | 7 µM | 0.005 µM |
| N#Cc1ccc(COc2ccnn2-c2cc(C(=O)O)ccn2)cc1 | 0.004 µM | 0.0006 µM | 0.94 µM | 0.014 µM |
| O=C(O)c1ccnc(-n2nccc2OCc2ccccc2F)c1 | 0.27 µM | 0.042 µM | – | – |
| O=C(O)c1ccnc(-n2nccc2-c2ccc(F)cc2F)c1 | – | 0.17 µM | – | 0.38 µM |
| O=C(O)c1ccnc(-n2ncc(CCO)c2OCc2ccc(F)cc2)c1 | 0.08 µM | 0.068 µM | – | > 2 µM |
| Cc1cnn(-c2cc(C(=O)O)ccn2)c1OCc1ccc(F)cc1 | 0.077 µM | 0.054 µM | – | 2.9 µM |
| O=C(O)c1ccnc(-n2nccc2OCc2ccc(F)cc2)c1 | 0.038 µM | 0.004 µM | 0.84 µM | 0.024 µM |
| O=C(O)c1ccnc(-n2nccc2OCc2ccc(Cl)cc2OCC2CC2)c1 | 0.075 µM | 0.006 µM | – | 0.28 µM |
| Cc1ccc(COc2ccnn2-c2cc(C(=O)O)ccn2)cc1 | 0.032 µM | 0.004 µM | 0.99 µM | 1.1 µM |
| CCc1ccc(COc2ccnn2-c2cc(C(=O)O)ccn2)cc1 | 0.044 µM | 0.003 µM | 1.3 µM | 3.6 µM |
| CCOc1cc(Cl)ccc1COc1ccnn1-c1cc(C(=O)O)ccn1 | 0.019 µM | 0.004 µM | 1 µM | 0.078 µM |
| CS(=O)(=O)c1ccc(-c2ccnn2-c2cc(C(=O)O)ccn2)cc1 | – | 0.35 µM | – | 2.7 µM |
| O=C(O)c1ccnc(-n2nccc2OCc2ccc(Cl)cc2)c1 | 0.014 µM | 0.004 µM | 0.42 µM | 0.054 µM |
| O=C(O)c1ccnc(-n2nccc2OCc2ccc(C(F)(F)F)cc2)c1 | 0.24 µM | – | – | – |
| CN(C)CCc1cnn(-c2cc(C(=O)O)ccn2)c1OCc1ccc(F)cc1 | 0.003 µM | 0.001 µM | 4.6 µM | 0.019 µM |
| CC(Oc1ccnn1-c1cc(C(=O)O)ccn1)c1ccc(F)cc1 (stereo unspecified) | 0.18 µM | 0.041 µM | – | 0.31 µM |
| O=C(O)c1ccnc(-n2nccc2OCc2ccc(Cl)cc2OCc2ccccc2)c1 | 0.032 µM | 0.004 µM | 0.8 µM | 0.074 µM |
| COc1ccc(COc2ccnn2-c2cc(C(=O)O)ccn2)cc1 | 1.7 µM | 0.004 µM | – | 0.068 µM |

Other lines, results leading:

| IC50 [1] | IC50 [2] | EC50 [3] | IC50 [4] | SMILES |
| --- | --- | --- | --- | --- |
| – | 0.076 µM | – | 1.1 µM | Cc1ccc(-c2ccnn2-c2cc(C(=O)O)ccn2)cc1O |
| – | 4.4 µM | – | 6.2 µM | O=C(O)c1ccnc(-n2nccc2-c2ccccc2)c1 |
| – | 0.24 µM | – | 0.49 µM | O=C(O)c1ccnc(-n2nccc2-c2ccc(F)cc2)c1 |
| – | 0.5 µM | – | 0.66 µM | O=C(O)c1ccnc(-n2nccc2-c2cccc(F)c2)c1 |
| – | 0.23 µM | – | 2.9 µM | COc1cc(-c2ccnn2-c2cc(C(=O)O)ccn2)ccc1Cl |
| – | 0.12 µM | – | 0.41 µM | O=C(O)c1ccnc(-n2nccc2-c2cccc(O)c2)c1 |
| – | 0.32 µM | – | 0.45 µM | O=C(O)c1ccnc(-n2nccc2-c2ccc(O)cc2)c1 |
| – | 0.54 µM | – | 1.8 µM | COc1cc(-c2ccnn2-c2cc(C(=O)O)ccn2)ccc1C |
| – | 0.2 µM | – | 1.1 µM | Cc1ccc(-c2ccnn2-c2cc(C(=O)O)ccn2)cc1 |
| – | 0.37 µM | – | 0.56 µM | O=C(O)c1ccnc(-n2nccc2-c2ccc(F)c(F)c2)c1 |
| 0.012 µM | 0.001 µM | 0.11 µM | 0.038 µM | COc1cc(Cl)ccc1COc1ccnn1-c1cc(C(=O)O)ccn1 |

— ChEMBL document CHEMBL4219204, “Structure-based design and discovery of potent and selective KDM5 inhibitors” (Bioorg Med Chem Lett, 2018)
